From article PMC6843521, “Discrimination of Oviposition Deterrent Volatile β-Ionone by Odorant-Binding Proteins 1 and 4 in the Whitefly Bemisia tabaci” (Biomolecules, 2019)
Counter-ions that a name gives are not always drawn. Like-named read-outs stand apart in the source and are kept apart here.

Legend:
OBP1 [1] = target: T1, OBP1 (Bemisia tabaci, UniProt A0A1S6JPY5); assay: Fluorescence competitive binding assay, recombinant OBP1 with 1-NPN probe
Description: (§1) N-Phenyl-1-naphthylamine (1-NPN), 4,4′-Dianilino-1,1′-binaphthyl-5,5′-disulfonic acid dipotassium salt (bis-ANS), β-ionone, α-ionone, and […] were diluted with chromatographic-grade methanol to a final concentration of 1 mmol·L^−1, and the protein was diluted with 50 mM Tris-HCl (pH 7.4) to a final concentration of 2 μmol·L^−1. When 1-NPN was used as fluorescent probe, the excitation wavelength of the fluorescence spectrophotometer was set to 337 nm, and the scanning range was 350−500 nm. When bis-ANS was used as fluorescent probe, the excitation wavelength of the fluorescence spectrophotometer was set to 295 nm, and the scanning range was 300−550 nm. The fluorescent probe was gradually added to the protein-containing quartz tube to make it close to saturation. According to the Scatchard equation [35], the binding dissociation constants K1-NPN of OBP1 and the fluorescent probe 1-NPN and Kbis-ANS of OBP4 and fluorescent probe bis-ANS were determined. Protein and fluorescent probes were added to the quartz dish (the final concentration was 2 μM), and ionone was gradually added to determine the binding ability of the protein and ionone, and the dissociation constant Ki was calculated using the formula: Ki = [IC50]/(1 + [L]/KL), where [IC50] is the concentration of the ligand at which the fluorescence intensity is reduced by half, [L] is the concentration of the free fluorescent probe, and KL is the binding dissociation constant of the protein and the fluorescent probe. N-Phenyl-1-naphthylamine (1-NPN, Chemical Abstract Service (CAS): 90-30-2), 4,4’-dianilino-1,1’-binaphthyl-5,5’-disulfonic acid dipotassium salt (bis-ANS, CAS: 65664-81-5), methanol (CAS: 67-56-1), α-ionone (CAS: 127-41-3), β-ionone (CAS: 14901-07-6), and dihydro-β-ionone (CAS: 17283-81-7) were purchased from Sigma-Aldrich (St. Louis, MO, USA).

B. tabaci = conditions: cited from earlier work
OBP8 = target: OBP8; parameters: method as in doi:10.1016/j.cropro.2009.10.001, PMID 19458158; conditions: B. tabaci OBP8; ref [9],[31]; cited from earlier work
spider mite = tested on: spider mite; parameters: method as in Caceres et al. [10]; conditions: ref Caceres et al. [10]; cited from earlier work
flea beetle = tested on: flea beetle; parameters: method as in Caceres et al. [10]; conditions: ref Caceres et al. [10]; cited from earlier work
OBP1 [2] = target: T1, OBP1; assay: Fluorescence competitive binding, OBP1 with bis-ANS as probe (Figure S2C)
Description: as §1

OBP4 [3] = target: T2, OBP4 (Bemisia tabaci, UniProt A0A1S6JPY9); assay: Fluorescence competitive binding, OBP4 with 1-NPN as probe (Figure S2D); conditions: OBP4, 1-NPN as probe
T2 sequence (A0A1S6JPY9 entry or part of it): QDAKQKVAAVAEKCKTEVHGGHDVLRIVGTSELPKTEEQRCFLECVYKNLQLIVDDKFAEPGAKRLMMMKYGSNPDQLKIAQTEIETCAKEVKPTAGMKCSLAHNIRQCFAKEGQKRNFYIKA
Description: as §1

OBP4 [4] = target: T2, OBP4; assay: Fluorescence competitive binding assay, recombinant OBP4 with bis-ANS probe
Description: as §1

T1 sequence (A0A1S6JPY5 entry or part of it): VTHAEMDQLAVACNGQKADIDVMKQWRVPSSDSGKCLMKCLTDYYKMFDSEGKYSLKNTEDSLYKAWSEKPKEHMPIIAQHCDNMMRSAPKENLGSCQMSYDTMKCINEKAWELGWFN

Structure (SMILES) | binding ability (words) (OBP1 [2]) | binding ability (words) (OBP4 [3]) | IC50 (OBP1 [1]) | IC50 (OBP4 [4]) | binding ability (words) (OBP1 [1]; OBP1, 1-NPN probe) | binding ability (words) (OBP4 [4]; OBP4, bis-ANS probe) | further results
CC(=O)/C=C/C1C(C)=CCCC1(C)C (stereo not drawn) [α-ionone] | did not | did not | 40.1 µM | 21.1 µM | weak binding | weak binding | binding ability (words) (OBP1 [1]; OBP1, 1-NPN probe, listed as α-Ionone): weaker binding; ovipositioning repellent to whitefly (B. tabaci; doses of 0.05 ng/μL and 0.5 ng/μL, ref [10]): weak ovipositioning repellent; binding ability (words) (OBP4 [4]; OBP4, bis-ANS probe, listed as α-Ionone): weaker binding
c1ccc(Nc2cccc3ccccc23)cc1 [1-NPN, N-Phenyl-1-naphthylamine, reference compound] | – | – | – | – | – | – | Kd (OBP1 [1]): 3.38 µM
O=S(=O)(O)c1cccc2c(-c3ccc(Nc4ccccc4)c4c(S(=O)(=O)O)cccc34)ccc(Nc3ccccc3)c12 [bis-ANS, 4,4′-Dianilino-1,1′-binaphthyl-5,5′-disulfonic acid dipotassium salt, reference compound] | – | – | – | – | – | – | Kd (OBP4 [4]; OBP4 2 μmol·L^−1, 50 mM Tris-HCl pH 7.4, excitation 295 nm, read-out: dissociation constant of fluorescent probe (Scatchard)): 2.68 µM

More lines, main results first:

binding ability (words) (OBP1 [2]) | binding ability (words) (OBP4 [3]) | Structure (SMILES) | IC50 (OBP1 [1]) | IC50 (OBP4 [4]) | binding ability (words) (OBP1 [1]; OBP1, 1-NPN probe) | binding ability (words) (OBP4 [4]; OBP4, bis-ANS probe) | further results
bonded well | bonded well | CC(=O)/C=C/C1=C(C)CCCC1(C)C [β-ionone] | 7.16 µM | 5.14 µM | – | – | B. tabaci egg production (B. tabaci; concentrations of 0.1 ng/μL and 0.5 ng/μL, ref Cáceres et al. [10]): significantly inhibit; oviposition deterrence to whiteflies (B. tabaci; ref Caceres et al. [10]): significant oviposition deterrence; Ki (OBP8): 13.3 µM; repellent effect (spider mite): strong repellent effect; repellent effect (flea beetle): strong repellent effect
did not | did not | CC(=O)CCC1=C(C)CCCC1(C)C [dihydro-β-ionone] | – | – | hardly displaced the fluorescent probe | hardly displaced the fluorescent probe | IC50 (OBP1 [1]; OBP1, 1-NPN probe, dash symbol of Table S2, read-out: IC50): > 50 µM; IC50 (OBP4 [4]; OBP4, bis-ANS probe, dash symbol of Table S2, read-out: IC50): > 50 µM
